# Experimental data published in patent US20230085307A1, “PYRIDAZINONE COMPOUND AND HERBICIDE” (NISSAN CHEMICAL CORPORATION, priority 2019, published 2023).
# Key:
# oval-leafed pondweed [1] = experiment: Test Example 1: herbicidal activity, application before weed generation under submerged conditions (Table 16, symbol C); format: in vivo, oval-leafed pondweed (Monochoria vaginalis)
# How it was run: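 Emulsion formulation, water-diluted to set dose, was put onto the flooded surface (4 cm depth, alluvial soil) the same day weeds were sown and 2.5-leaf rice transplanted. After 3 weeks at 25-30 °C under glass, each species was rated 0 (≤5% kill) to 5 (≥90% kill).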
# late watergrass = experiment: Test Example 2: herbicidal activity, application during weed generation under submerged conditions (Table 17, symbol A); format: in vivo, late watergrass (Echinochloa oryzicola); conditions: application during weed generation, submerged conditions
# How it was run: (§1)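 Herbicide emulsion, diluted with water to the chosen amount, is applied onto 4 cm floodwater over alluvial soil where the weeds were co-sown and raised at 25–30° C. Application timing: 1–2 leaves. Assessment: three weeks afterwards.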
# Japanese bulrush = experiment: Test Example 2: herbicidal activity, application during weed generation under submerged conditions (Table 17, symbol B); format: in vivo, Japanese bulrush (Schoenoplectus juncoides); conditions: application during weed generation, submerged conditions
# How it was run: as §1
# oval-leafed pondweed [2] = experiment: Test Example 2: herbicidal activity, application during weed generation under submerged conditions (Table 17, symbol C); format: in vivo, oval-leafed pondweed (Monochoria vaginalis); conditions: application during weed generation, submerged conditions
# How it was run: as §1
# barnyard grass = experiment: Test Example 4: herbicidal effect by soil treatment (Table 19, symbol H); format: in vivo, barnyard grass (Echinochloa crus-galli)
# How it was run: (§2)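 Emulsion of test compound, water-diluted to predetermined amount, sprayed on soil after sowing (seed depth ~1.5 cm, sterilized diluvial soil). Greenhouse, 25–30° C. Effect graded at three weeks post-spray.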
# wild oat [3] = experiment: Test Example 4: herbicidal effect by soil treatment (Table 19, symbol I); format: in vivo, wild oat (Avena fatua)
# How it was run: as §2
# Italian ryegrass = experiment: Test Example 4: herbicidal effect by soil treatment (Table 19, symbol K); format: in vivo, Italian ryegrass (Lolium multiflorum)
# How it was run: as §2
# windgrass = experiment: Test Example 4: herbicidal effect by soil treatment (Table 19, symbol L); format: in vivo, windgrass (Apera spica-venti)
# How it was run: as §2
# velvetleaf = experiment: Test Example 4: herbicidal effect by soil treatment (Table 19, symbol M); format: in vivo, velvetleaf (Abutilon theophrasti)
# How it was run: as §2
# lambsquarters = experiment: Test Example 4: herbicidal effect by soil treatment (Table 19, symbol O); format: in vivo, lambsquarters (Chenopodium album)
# How it was run: as §2
# chickweed [4] = experiment: Test Example 4: herbicidal effect by soil treatment (Table 19, symbol P); format: in vivo, common chickweed (Stellaria media)
# How it was run: as §2
# false cleavers [5] = experiment: Test Example 4: herbicidal effect by soil treatment (Table 19, symbol Q); format: in vivo, false cleavers (Galium spurium)
# How it was run: as §2
# persian speedwell = experiment: Test Example 4: herbicidal effect by soil treatment (Table 19, symbol R); format: in vivo, Persian speedwell (Veronica persica)
# How it was run: as §2
# southern crabgrass = experiment: Test Example 5: herbicidal effect by foliage application, plastic box (Table 20, symbol F); format: in vivo, southern crabgrass (Digitaria ciliaris); conditions: foliage application, three weeks after application
# How it was run: (§3)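 Post-emergence foliar test in sterilized diluvial soil. Compound applied as water-diluted emulsion at a predetermined rate to 14-day-old plants; evaluation at three weeks.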
# wild oat [6] = experiment: Test Example 5: herbicidal effect by foliage application, plastic box (Table 20, symbol I); format: in vivo, wild oat (Avena fatua); conditions: foliage application, three weeks after application
# How it was run: as §3
# chickweed [7] = experiment: Test Example 5: herbicidal effect by foliage application, plastic box (Table 20, symbol P); format: in vivo, common chickweed (Stellaria media); conditions: foliage application, three weeks after application
# How it was run: as §3
# false cleavers [8] = experiment: Test Example 5: herbicidal effect by foliage application, plastic box (Table 20, symbol Q); format: in vivo, false cleavers (Galium spurium); conditions: foliage application, three weeks after application
# How it was run: as §3
# [9] = amount of applied herbicide 320 g/ha
# [10] = amount of applied herbicide 323 g/ha
SMILES,"Herbicidal effect, C: oval-leafed pondweed (oval-leafed pondweed [1]; [9])","herbicidal effect rating, A: late watergrass (late watergrass; AAH 320 g/ha)","herbicidal effect rating, B: Japanese bulrush (Japanese bulrush; AAH 320 g/ha)","herbicidal effect rating, C: oval-leafed pondweed (oval-leafed pondweed [2]; AAH 320 g/ha)","H: barnyard grass, herbicidal effect grade (barnyard grass; [9])","I: wild oat, herbicidal effect grade (wild oat [3]; [9])","K: Italian ryegrass, herbicidal effect grade (Italian ryegrass; [9])","L: windgrass, herbicidal effect grade (windgrass; [9])","M: velvetleaf, herbicidal effect grade (velvetleaf; [9])","O: lambsquarters, herbicidal effect grade (lambsquarters; [9])","P: chickweed, herbicidal effect grade (chickweed [4]; [9])","Q: false cleavers, herbicidal effect grade (false cleavers [5]; [9])","R: persian speedwell, herbicidal effect grade (persian speedwell; [9])","F: southern crabgrass, herbicidal effect grade (southern crabgrass; 320 g/ha)","I: wild oat, herbicidal effect grade (wild oat [6]; 320 g/ha)","P: chickweed, herbicidal effect grade (chickweed [7]; 320 g/ha)","Q: false cleavers, herbicidal effect grade (false cleavers [8]; 320 g/ha)",also measured
CCOc1ccc2c(-c3c(O)c(C)nn(C)c3=O)c(-c3ccccc3OC)sc2c1 [3-089],5 (Herbicidal rate of 90% or more (almost completely withered)),4 (Herbicidal rate of 70% or more and less than 90%),5 (Herbicidal rate of 90% or more (almost completely withered)),5 (Herbicidal rate of 90% or more (almost completely withered)),4 (Herbicidal rate of 70% or more and less than 90%),1 (Herbicidal rate of 5% or more and less than 20%),4 (Herbicidal rate of 70% or more and less than 90%),4 (Herbicidal rate of 70% or more and less than 90%),0 (Herbicidal rate of 5% or less (almost no effect)),4 (Herbicidal rate of 70% or more and less than 90%),4 (Herbicidal rate of 70% or more and less than 90%),5 (Herbicidal rate of 90% or more (almost completely withered)),5 (Herbicidal rate of 90% or more (almost completely withered)),4 (Herbicidal rate of 70% or more and less than 90%),3 (Herbicidal rate of 40% or more and less than 70%),5 (Herbicidal rate of 90% or more (almost completely withered)),5 (Herbicidal rate of 90% or more (almost completely withered)),–
CCOc1ccc2c(-c3c(O)c(C)nn(C)c3=O)c(-c3ccccc3OCC)sc2c1 [3-093],5 (Herbicidal rate of 90% or more (almost completely withered)),3 (Herbicidal rate of 40% or more and less than 70%),5 (Herbicidal rate of 90% or more (almost completely withered)),5 (Herbicidal rate of 90% or more (almost completely withered)),4 (Herbicidal rate of 70% or more and less than 90%),3 (Herbicidal rate of 40% or more and less than 70%),4 (Herbicidal rate of 70% or more and less than 90%),4 (Herbicidal rate of 70% or more and less than 90%),3 (Herbicidal rate of 40% or more and less than 70%),4 (Herbicidal rate of 70% or more and less than 90%),4 (Herbicidal rate of 70% or more and less than 90%),3 (Herbicidal rate of 40% or more and less than 70%),5 (Herbicidal rate of 90% or more (almost completely withered)),5 (Herbicidal rate of 90% or more (almost completely withered)),4 (Herbicidal rate of 70% or more and less than 90%),5 (Herbicidal rate of 90% or more (almost completely withered)),5 (Herbicidal rate of 90% or more (almost completely withered)),–
CCCC(=O)Oc1c(C)nn(C)c(=O)c1-c1c(-c2ccccc2OCC)sc2cc(OCC)ccc12 [3-094],–,–,–,–,–,–,–,–,–,–,–,–,–,–,–,–,–,"Herbicidal effect, C: oval-leafed pondweed (oval-leafed pondweed [1]; [10]): 5 (Herbicidal rate of 90% or more (almost completely withered)); herbicidal effect rating, A: late watergrass (late watergrass; AAH 323 g/ha): 3 (Herbicidal rate of 40% or more and less than 70%); herbicidal effect rating, B: Japanese bulrush (Japanese bulrush; AAH 323 g/ha): 4 (Herbicidal rate of 70% or more and less than 90%); herbicidal effect rating, C: oval-leafed pondweed (oval-leafed pondweed [2]; AAH 323 g/ha): 4 (Herbicidal rate of 70% or more and less than 90%); H: barnyard grass, herbicidal effect grade (barnyard grass; [10]): 0 (Herbicidal rate of 5% or less (almost no effect)); I: wild oat, herbicidal effect grade (wild oat [3]; [10]): 0 (Herbicidal rate of 5% or less (almost no effect)); K: Italian ryegrass, herbicidal effect grade (Italian ryegrass; [10]): 4 (Herbicidal rate of 70% or more and less than 90%); L: windgrass, herbicidal effect grade (windgrass; [10]): 4 (Herbicidal rate of 70% or more and less than 90%); M: velvetleaf, herbicidal effect grade (velvetleaf; [10]): 0 (Herbicidal rate of 5% or less (almost no effect)); O: lambsquarters, herbicidal effect grade (lambsquarters; [10]): 4 (Herbicidal rate of 70% or more and less than 90%); P: chickweed, herbicidal effect grade (chickweed [4]; [10]): 4 (Herbicidal rate of 70% or more and less than 90%); Q: false cleavers, herbicidal effect grade (false cleavers [5]; [10]): 4 (Herbicidal rate of 70% or more and less than 90%); R: persian speedwell, herbicidal effect grade (persian speedwell; [10]): 5 (Herbicidal rate of 90% or more (almost completely withered)); F: southern crabgrass, herbicidal effect grade (southern crabgrass; 323 g/ha): 4 (Herbicidal rate of 70% or more and less than 90%); I: wild oat, herbicidal effect grade (wild oat [6]; 323 g/ha): 5 (Herbicidal rate of 90% or more (almost completely withered)); P: chickweed, herbicidal effect grade (chickweed [7]; 323 g/ha): 5 (Herbicidal rate of 90% or more (almost completely withered)); Q: false cleavers, herbicidal effect grade (false cleavers [8]; 323 g/ha): 5 (Herbicidal rate of 90% or more (almost completely withered))"
CCCC(=O)Oc1c(C)nn(C)c(=O)c1-c1c(-c2ccc(F)cc2OCC)sc2cc(OCC)ccc12 [3-096],5 (Herbicidal rate of 90% or more (almost completely withered)),4 (Herbicidal rate of 70% or more and less than 90%),5 (Herbicidal rate of 90% or more (almost completely withered)),4 (Herbicidal rate of 70% or more and less than 90%),0 (Herbicidal rate of 5% or less (almost no effect)),0 (Herbicidal rate of 5% or less (almost no effect)),2 (Herbicidal rate of 20% or more and less than 40%),5 (Herbicidal rate of 90% or more (almost completely withered)),4 (Herbicidal rate of 70% or more and less than 90%),5 (Herbicidal rate of 90% or more (almost completely withered)),5 (Herbicidal rate of 90% or more (almost completely withered)),5 (Herbicidal rate of 90% or more (almost completely withered)),5 (Herbicidal rate of 90% or more (almost completely withered)),5 (Herbicidal rate of 90% or more (almost completely withered)),5 (Herbicidal rate of 90% or more (almost completely withered)),5 (Herbicidal rate of 90% or more (almost completely withered)),5 (Herbicidal rate of 90% or more (almost completely withered)),–
